Assays:
Glutamate receptor 3 = Glutamate receptor 3 (Rattus norvegicus, UniProt P19492)
[1] = molecular target: Glutamate receptor ionotropic, kainate 1 (Rattus norvegicus, UniProt P22756)
[2] = molecular target: Glutamate receptor ionotropic, NMDA 1 (Rattus norvegicus, UniProt P35439)

Glutamate receptor 3, sequence (P19492 whole entry): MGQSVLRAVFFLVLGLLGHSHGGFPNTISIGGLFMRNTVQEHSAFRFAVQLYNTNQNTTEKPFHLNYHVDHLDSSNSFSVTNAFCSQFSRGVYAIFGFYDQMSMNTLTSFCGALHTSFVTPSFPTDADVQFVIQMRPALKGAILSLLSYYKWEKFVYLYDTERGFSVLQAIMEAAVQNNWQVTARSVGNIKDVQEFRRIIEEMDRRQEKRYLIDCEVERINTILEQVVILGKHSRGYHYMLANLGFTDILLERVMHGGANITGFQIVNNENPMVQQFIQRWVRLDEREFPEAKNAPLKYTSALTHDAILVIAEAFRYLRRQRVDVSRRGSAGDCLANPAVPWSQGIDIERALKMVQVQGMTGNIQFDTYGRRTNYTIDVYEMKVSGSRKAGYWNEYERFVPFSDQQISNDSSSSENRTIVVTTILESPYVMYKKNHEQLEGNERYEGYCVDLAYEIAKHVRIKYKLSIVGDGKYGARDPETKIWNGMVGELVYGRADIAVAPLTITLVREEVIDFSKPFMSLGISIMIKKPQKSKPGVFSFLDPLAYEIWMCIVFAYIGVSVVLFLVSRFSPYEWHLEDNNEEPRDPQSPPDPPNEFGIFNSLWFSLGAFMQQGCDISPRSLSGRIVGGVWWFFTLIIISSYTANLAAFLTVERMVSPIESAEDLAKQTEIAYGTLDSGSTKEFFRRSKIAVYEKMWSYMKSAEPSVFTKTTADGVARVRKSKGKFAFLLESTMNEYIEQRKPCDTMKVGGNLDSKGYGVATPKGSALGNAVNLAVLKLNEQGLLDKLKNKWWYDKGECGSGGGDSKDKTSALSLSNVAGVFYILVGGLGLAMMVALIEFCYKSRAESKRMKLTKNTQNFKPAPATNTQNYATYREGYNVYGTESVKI
Glutamate receptor ionotropic, kainate 1, sequence (P22756 whole entry): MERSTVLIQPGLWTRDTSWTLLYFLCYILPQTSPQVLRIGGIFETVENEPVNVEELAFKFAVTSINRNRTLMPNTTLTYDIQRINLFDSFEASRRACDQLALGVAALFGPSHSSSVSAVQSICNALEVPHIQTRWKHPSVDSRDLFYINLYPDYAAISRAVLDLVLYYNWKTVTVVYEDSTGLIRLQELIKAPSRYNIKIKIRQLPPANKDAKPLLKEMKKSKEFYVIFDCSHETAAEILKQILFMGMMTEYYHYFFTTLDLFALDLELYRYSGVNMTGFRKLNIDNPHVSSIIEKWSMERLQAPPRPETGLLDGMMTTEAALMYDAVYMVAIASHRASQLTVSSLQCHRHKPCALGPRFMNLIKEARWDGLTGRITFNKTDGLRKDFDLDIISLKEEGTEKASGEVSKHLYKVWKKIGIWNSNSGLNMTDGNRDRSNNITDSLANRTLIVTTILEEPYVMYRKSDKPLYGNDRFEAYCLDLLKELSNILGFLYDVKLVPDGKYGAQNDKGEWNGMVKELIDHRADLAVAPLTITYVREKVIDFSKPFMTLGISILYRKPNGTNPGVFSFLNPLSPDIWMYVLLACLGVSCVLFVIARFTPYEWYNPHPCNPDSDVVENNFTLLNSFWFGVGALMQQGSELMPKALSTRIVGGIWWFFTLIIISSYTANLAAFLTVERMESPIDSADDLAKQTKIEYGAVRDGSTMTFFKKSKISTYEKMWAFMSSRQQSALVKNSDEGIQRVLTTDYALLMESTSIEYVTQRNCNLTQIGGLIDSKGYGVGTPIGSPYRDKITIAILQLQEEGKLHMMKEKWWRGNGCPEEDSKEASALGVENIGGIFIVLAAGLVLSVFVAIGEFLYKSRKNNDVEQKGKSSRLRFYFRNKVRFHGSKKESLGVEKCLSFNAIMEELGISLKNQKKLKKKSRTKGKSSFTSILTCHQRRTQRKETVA

SMILES | Ki (Glutamate receptor 3) [µM] | Ki [1] [µM] | Ki [2] [µM]
CC(C)(C)c1o[nH]c(=O)c1C[C@H](N)C(=O)O [ATPA-R] | > 10 |  | 
CC(C)(C)c1o[nH]c(=O)c1C[C@@H](N)C(=O)O [ATPA-S] | 1.8 |  | 
CC(C)(C)c1onc(O)c1CC(N)C(=O)O (stereo not given) [NSC_2253] | > 10 |  | 
CC(C)(C)c1snc(O)c1CC(N)C(=O)O (stereo not given) [Thio-ATPA-S] |  | > 10 | > 10

Source: BindingDB's records for doi:10.1016/s0014-2999(00)00916-x (The Royal Danish School of Pharmacy, 2001)
